The subject of one data set is erythrocytes. To be noted: cited from earlier work.
Data set [1] relates to P. aeruginosa strain PAO1. The experiment in a line: Scarification skin infection mouse model. Type of data set: in vivo, female CD-1 mice. The method, then: P. aeruginosa strain PAO1 was grown to an optical density at 600 nm (OD600) of 1 in tryptic soy broth medium. Subsequently cells were washed twice with sterile PBS, and resuspended to a final concentration of 5 × 10^7 CFU in 50 μL. To generate skin infection, female CD-1 mice (6 weeks old) were anesthetized with isoflurane and had their backs shaved. A superficial linear skin abrasion was made with a needle in order to damage the stratum corneum and upper layer of the epidermis. Five minutes after wounding, an aliquot of 50 μL containing 5 × 10^7 CFU of bacteria in PBS was inoculated over each defined area containing the scratch with a pipette tip. One day after the infection, peptides were administered to the infected area. Animals were euthanized and the area of scarified skin was excised 2 and 4 days post-infection, homogenized using a bead beater for 20 min (25 Hz), and serially diluted for CFU quantification. Two independent experiments were performed with four mice per group in each case. Statistical significance was assessed using a two-way ANOVA. Animals were maintained in accordance with the Guide for the Care and Use of Laboratory Animals in an AAALAC-accredited facility. All procedures were approved by the MIT’s Institutional Animal Care and Use Committee (IACUC), protocol number 1016-064-19.

Take “Pg-AMP1: guava glycine-rich antimicrobial peptide, UniProt P86030, template of the guavanins (RESPSSRMECYEQAERYGYGGYGGGRYGGGYGSGRGQPVGQGVERSHDDNRNQPR; UniProt P86030 1-55, looked up)”: the hemolytic activity entry with erythrocytes is “hemolytic”. The anti-infective activity entry in data set [1] (6.25 μg mL−1, 4 days post-infection) is reported as “no activity”. In addition, the “effect on CFU counts / bacterial load (two-way ANOVA)” value in data set [1] (doses 6.25, 25 and 100 µg mL−1, 4 days post-infection, two experiments, four mice per group) was “significant reduction of bacterial load only at higher concentrations”. Moreover, the “dose at which activity is kept after 4 days” value in data set [1] (wound infection mouse model) was 25 µg/mL.
